These compounds were tested on tubulin (assay: Tubulin binding assay (Tubulin Assay), method of Parness et al.). Settings: compared to taxol and taxotere.

| SMILES | Tubulin Assay Init. Peak | Tubulin Assay Rel. Rate |
| --- | --- | --- |
| CC(=O)O[C@H]1C(=O)[C@@]2(C)[C@H]([C@H](OC(=O)c3ccccc3)[C@]3(O)C[C@H](OC(=O)[C@H](O)[C@@H](NC(=O)c4ccc(C)cc4)c4ccc(Cl)cc4)C(C)=C1C3(C)C)[C@]1(OC(C)=O)CO[C@@H]1C[C@@H]2O [Example 17, N-debenzoyl-N-(4-methylbenzoyl)-3'-desphenyl-3'-(4-chlorophenyl) taxol] | 101 | 98 |
| CC(=O)O[C@H]1C(=O)[C@@]2(C)[C@H]([C@H](OC(=O)c3ccccc3)[C@]3(O)C[C@H](OC(=O)[C@H](O)[C@@H](NC(=O)c4ccc(C(C)(C)C)cc4)c4ccc(F)cc4)C(C)=C1C3(C)C)[C@]1(OC(C)=O)CO[C@@H]1C[C@@H]2O [Example 27, N-debenzoyl-N-(4-t-butylbenzoyl)-3'-desphenyl-3'-(4-fluorophenyl) taxol] | 55 | 82 |
| CC(=O)O[C@H]1C(=O)[C@@]2(C)[C@H]([C@H](OC(=O)c3ccccc3)[C@]3(O)C[C@H](OC(=O)[C@H](O)[C@@H](NC(=O)c4ccccc4)c4ccc5ccccc5c4)C(C)=C1C3(C)C)[C@]1(OC(C)=O)CO[C@@H]1C[C@@H]2O [Example 2, 3'-desphenyl-3'-(2-naphthyl) taxol] | 0 | 0 |
| CC(=O)O[C@H]1C(=O)[C@@]2(C)[C@H]([C@H](OC(=O)c3ccccc3)[C@]3(O)C[C@H](OC(=O)[C@H](O)[C@@H](NC(=O)c4ccccc4)c4ccc(Br)cc4)C(C)=C1C3(C)C)[C@]1(OC(C)=O)CO[C@@H]1C[C@@H]2O [Example 5, 3'-desphenyl-3'-(4-bromophenyl) taxol] | 5 | 74 |
| COc1ccc(C(=O)N[C@@H](c2ccc(F)cc2)[C@@H](O)C(=O)O[C@H]2C[C@@]3(O)[C@@H](OC(=O)c4ccccc4)[C@@H]4[C@]5(OC(C)=O)CO[C@@H]5C[C@H](O)[C@@]4(C)C(=O)[C@H](OC(C)=O)C(=C2C)C3(C)C)cc1 [Example 28, N-debenzoyl-N-(4-methoxybenzoyl)-3'-desphenyl-3'-(4-fluorophenyl) taxol] | 106 | 97 |
| COc1ccc([C@H](NC(=O)c2ccc(C(C)(C)C)cc2)[C@@H](O)C(=O)O[C@H]2C[C@@]3(O)[C@@H](OC(=O)c4ccccc4)[C@@H]4[C@]5(OC(C)=O)CO[C@@H]5C[C@H](O)[C@@]4(C)C(=O)[C@H](OC(C)=O)C(=C2C)C3(C)C)cc1 [Example 31, N-debenzoyl-N-(4-t-butylbenzoyl)-3'-desphenyl-3'-(4-methoxyphenyl) taxol] | 24 | 44 |
| CC(=O)O[C@H]1C(=O)[C@@]2(C)[C@H]([C@H](OC(=O)c3ccccc3)[C@]3(O)C[C@H](OC(=O)[C@H](O)[C@@H](NC(=O)c4ccc(Cl)cc4)c4ccc(F)cc4)C(C)=C1C3(C)C)[C@]1(OC(C)=O)CO[C@@H]1C[C@@H]2O [Example 18, N-debenzoyl-N-(4-chlorobenzoyl)-3'-desphenyl-3'-(4-fluorophenyl) taxol] | 109 | 92 |
| CC(=O)O[C@H]1C(=O)[C@@]2(C)[C@H]([C@H](OC(=O)c3ccccc3)[C@]3(O)C[C@H](OC(=O)[C@H](O)[C@@H](NC(=O)c4ccc(Cl)cc4)c4ccc(Cl)cc4)C(C)=C1C3(C)C)[C@]1(OC(C)=O)CO[C@@H]1C[C@@H]2O [Example 24, N-debenzoyl-N-(4-chlorobenzoyl)-3'-desphenyl-3'-(4-chlorophenyl) taxol] | 35 | 60 |
| CC(=O)O[C@@]12CO[C@@H]1C[C@H](O)[C@@]1(C)C(=O)[C@H](O)C3=C(C)[C@@H](OC(=O)[C@H](O)[C@@H](NC(=O)OC(C)(C)C)c4ccccc4)C[C@@](O)([C@@H](OC(=O)c4ccccc4)[C@H]21)C3(C)C [Taxotere, taxotere, reference compound] | 100 |  |
| CC(=O)O[C@H]1C(=O)[C@@]2(C)[C@H]([C@H](OC(=O)c3ccccc3)[C@]3(O)C[C@H](OC(=O)[C@H](O)[C@@H](NC(=O)c4ccc(C)cc4)c4ccccc4)C(C)=C1C3(C)C)[C@]1(OC(C)=O)CO[C@@H]1C[C@@H]2O [Example 12, N-debenzoyl-N-(4-methylbenzoyl) taxol] | 107 | 110 |
| COc1ccc([C@H](NC(=O)c2ccc(Br)cc2)[C@@H](O)C(=O)O[C@H]2C[C@@]3(O)[C@@H](OC(=O)c4ccccc4)[C@@H]4[C@]5(OC(C)=O)CO[C@@H]5C[C@H](O)[C@@]4(C)C(=O)[C@H](OC(C)=O)C(=C2C)C3(C)C)cc1 [Example 30, N-debenzoyl-N-(4-bromobenzoyl)-3'-desphenyl-3'-(4-methoxyphenyl) taxol] | 44 | 70 |
| CC(=O)O[C@H]1C(=O)[C@@]2(C)[C@H]([C@H](OC(=O)c3ccccc3)[C@]3(O)C[C@H](OC(=O)[C@H](O)[C@@H](NC(=O)c4ccc(Br)cc4)c4ccc(F)cc4)C(C)=C1C3(C)C)[C@]1(OC(C)=O)CO[C@@H]1C[C@@H]2O [Example 19, N-debenzoyl-N-(4-bromobenzoyl)-3'-desphenyl-3'-(4-fluorophenyl) taxol] | 88 | 100 |
| COc1ccc([C@H](NC(=O)c2ccccc2)[C@@H](O)C(=O)O[C@H]2C[C@@]3(O)[C@@H](OC(=O)c4ccccc4)[C@@H]4[C@]5(OC(C)=O)CO[C@@H]5C[C@H](O)[C@@]4(C)C(=O)[C@H](OC(C)=O)C(=C2C)C3(C)C)cc1 [Example 3, 3'-desphenyl-3'-(4-methoxyphenyl) taxol] | 59 | 87 |
| CC(=O)O[C@H]1C(=O)[C@@]2(C)[C@H]([C@H](OC(=O)c3ccccc3)[C@]3(O)C[C@H](OC(=O)[C@H](O)[C@@H](NC(=O)c4ccc(F)cc4)c4ccc(Cl)cc4)C(C)=C1C3(C)C)[C@]1(OC(C)=O)CO[C@@H]1C[C@@H]2O [Example 23, N-debenzoyl-N-(4-fluorobenzoyl)-3'-desphenyl-3'-(4-chlorophenyl) taxol] | 63 | 88 |
| CC(=O)O[C@H]1C(=O)[C@@]2(C)[C@H]([C@H](OC(=O)c3ccccc3)[C@]3(O)C[C@H](OC(=O)[C@H](O)[C@@H](NC(=O)c4ccccc4)c4ccc([N+](=O)[O-])cc4)C(C)=C1C3(C)C)[C@]1(OC(C)=O)CO[C@@H]1C[C@@H]2O [Example 8, 3'-desphenyl-3'-(4-nitrophenyl) taxol] | 114 | 105 |
| CC(=O)O[C@H]1C(=O)[C@@]2(C)[C@H]([C@H](OC(=O)c3ccccc3)[C@]3(O)C[C@H](OC(=O)[C@H](O)[C@@H](NC(=O)c4ccccc4)c4ccc(Cl)cc4)C(C)=C1C3(C)C)[C@]1(OC(C)=O)CO[C@@H]1C[C@@H]2O [Example 4, 3'-desphenyl-3'-(4-chlorophenyl) taxol] | 94 | 97 |
| COc1ccc([C@H](NC(=O)c2ccccc2)[C@@H](O)C(=O)O[C@H]2C[C@@]3(O)[C@@H](OC(=O)c4ccccc4)[C@@H]4[C@]5(OC(C)=O)CO[C@@H]5C[C@H](O)[C@@]4(C)C(=O)[C@H](OC(C)=O)C(=C2C)C3(C)C)cc1OC [Example 7, 3'-desphenyl-3'-(3,4-dimethoxyphenyl) taxol] | 11 | 26 |
| CC(=O)O[C@H]1C(=O)[C@@]2(C)[C@H]([C@H](OC(=O)c3ccccc3)[C@]3(O)C[C@H](OC(=O)[C@H](O)[C@@H](NC(=O)c4ccc(Br)cc4)c4ccccc4)C(C)=C1C3(C)C)[C@]1(OC(C)=O)CO[C@@H]1C[C@@H]2O [Example 11, N-debenzoyl-N-(4-bromobenzoyl) taxol] | 67 | 88 |
| CC(=O)O[C@H]1C(=O)[C@@]2(C)[C@H]([C@H](OC(=O)c3ccccc3)[C@]3(O)C[C@H](OC(=O)[C@H](O)[C@@H](NC(=O)c4ccc(C(C)(C)C)cc4)c4ccccc4)C(C)=C1C3(C)C)[C@]1(OC(C)=O)CO[C@@H]1C[C@@H]2O [Example 13, N-debenzoyl-N-(4-t-butylbenzoyl) taxol] | 67 | 85 |
| COc1ccc(C(=O)N[C@@H](c2ccc(OC)cc2)[C@@H](O)C(=O)O[C@H]2C[C@@]3(O)[C@@H](OC(=O)c4ccccc4)[C@@H]4[C@]5(OC(C)=O)CO[C@@H]5C[C@H](O)[C@@]4(C)C(=O)[C@H](OC(C)=O)C(=C2C)C3(C)C)cc1 [Example 32, N-debenzoyl-N-(4-methoxybenzoyl)-3'-desphenyl-3'-(4-methoxyphenyl) taxol] | 51 | 81 |
| COc1ccc([C@H](NC(=O)c2ccc(Cl)cc2)[C@@H](O)C(=O)O[C@H]2C[C@@]3(O)[C@@H](OC(=O)c4ccccc4)[C@@H]4[C@]5(OC(C)=O)CO[C@@H]5C[C@H](O)[C@@]4(C)C(=O)[C@H](OC(C)=O)C(=C2C)C3(C)C)cc1 [Example 29, N-debenzoyl-N-(4-chlorobenzoyl)-3'-desphenyl-3'-(4-methoxyphenyl) taxol] | 42 | 72 |
| CC(=O)O[C@H]1C(=O)[C@@]2(C)[C@H]([C@H](OC(=O)c3ccccc3)[C@]3(O)C[C@H](OC(=O)[C@H](O)[C@@H](NC(=O)c4ccccc4)c4ccc(F)cc4)C(C)=C1C3(C)C)[C@]1(OC(C)=O)CO[C@@H]1C[C@@H]2O [Example 9, 3'-desphenyl-3'-(4-fluorophenyl) taxol] | 100 |  |
| COc1ccc([C@H](NC(=O)c2ccc(C)cc2)[C@@H](O)C(=O)O[C@H]2C[C@@]3(O)[C@@H](OC(=O)c4ccccc4)[C@@H]4[C@]5(OC(C)=O)CO[C@@H]5C[C@H](O)[C@@]4(C)C(=O)[C@H](OC(C)=O)C(=C2C)C3(C)C)cc1 [Example 22, N-debenzoyl-N-(4-methylbenzoyl)-3'-desphenyl-3'-(4-methoxyphenyl) taxol] | 77 | 96 |
| CC(=O)O[C@H]1C(=O)[C@@]2(C)[C@H]([C@H](OC(=O)c3ccccc3)[C@]3(O)C[C@H](OC(=O)[C@H](O)[C@@H](NC(=O)c4ccccc4)c4ccc5c(c4)OCO5)C(C)=C1C3(C)C)[C@]1(OC(C)=O)CO[C@@H]1C[C@@H]2O [Example 6, 3'-desphenyl-3'-(3,4-methylenedioxyphenyl) taxol] | 53 | 85 |
